Reference: paper PMC7937321 (Genes and Environment, 2021)
Read-outs that look alike come from different tables or passages of the source.

How the values were obtained:
rodent = conditions: cited from earlier work; for Carcinogenicity Studies: rodent, ref [20]-[41], Table 2
[1] = system: L5178Y mouse lymphoma cells; conditions: cited from earlier work; for MLA (TK gene locus), With S9 / MLA (TK gene locus), Without S9: [46]-[53], Table 3
[2] = system: TA1538, TA100, TA98, TA97, TA1535; conditions: cited from earlier work; for Bacterial reverse mutation assay, With S9 / Bacterial reverse mutation assay, Without S9: ref [18]-[40], Table 2
[3] = system: human lymphoblastoid TK6 cells, thymidine kinase gene; test: TK gene mutation assay (TK6 assay, OECD TG490)
Experimental: (§1) In principle, this collaborative study conducted the treatment of test substances, the dose finding, and the main test of TK6 assays, according to the OECD Guideline TG490 [17]. […] Briefly, test substances were dissolved in an appropriate solvent (DMSO or ethanol) and then serially diluted to prepare final concentrations. […] The 4 h and 24 h treatments were conducted by shaking and static exposures, respectively. After treatment with test substances, cells were centrifuged (1000 rpm, 5 min), supernatants were removed, and cells were washed with a serum-free medium or Hank’s Balanced Salt Solution. After centrifugation (1000 rpm, 5 min) to remove the supernatant, cells (2 × 10^7 cells) were dispersed in an RPMI medium containing 10% serum, and cell concentration was measured. Treated cells were cultured at 37 °C with 5% CO2 condition and used for TK6 assays. At that time, to calculate the cloning efficiency (CE) (Eq. 1), the cells were cultured in a 96-well microplate at a concentration of about 1.6 cells/well for 2 weeks.
(§2) The TK6 assay is conducted between 20 and 10% RS0 as a maximum dose if cytotoxicity is observed. If no precipitate or limiting cytotoxicity was observed, the maximum dose was the lowest concentration among 10 mM, 2 mg/mL, or 2 μL/mL of the test substance. When the main TK6 assay was difficult to conduct under the condition of RS0 values from 20 to 10%, the test was conducted between 20 and 10% relative total growth (RTG), described later, as a maximum dose.
(§3) On the third day of culture, CE3 plates for determining plating efficiency and mutant frequency (MF) plates for mutation detection were prepared. CE3 plates were seeded in 96-well microplates at a concentration of about 1.6 cells/well. The MF plates were seeded in 96-well microplates at 40,000 cells/well in the presence of 3 μg/mL of trifluorothymidine (Sigma Aldrich).
(§4) Mutant colonies in MF plates were calculated using Eq. 7 using the Poisson distribution. EW was the number of wells without colonies, and TW was the total number of wells. N was the average number of cells per well (N = 40,000 in this study). The data were statistically analyzed by Omori’s method, a modified Dunnett’s procedure for identifying clear negatives, a Simpson–Margolin procedure for detecting downturn data, and a trend test to evaluate the dose dependency [42, 43]. The acceptability criterion for the test was that the MF value of the positive control group of each laboratory was increased with statistical significance compared with that of the concurrent negative control group.

TK6 cells [4] = test: Cytotoxicity in the TK6 assay (CE, RS, RSG, RTG); conditions: for CE0 / RS0 / Adjusted CE0 / Adjusted CE0(%) / CE0 (%) / RS0 (%): Day 0
[5] = system: human lymphoblastoid TK6 cells, thymidine kinase gene
Experimental: as §1, §2, §3, §4

TK6 cells [6] = conditions: human
[7] = Long-term treatment without metabolic activation
[8] = Short treatment, -S9 mix, 24.10 μg/mL
[9] = Short treatment, -S9 mix, 48.10 μg/mL
[10] = Short treatment, -S9 mix, 96.30 μg/mL
[11] = Short-term treatment with metabolic activation
[12] = Short-term treatment without metabolic activation
[13] = dose 6.02 μg/mL, 24h treatment, -S9 mix
[14] = dose 24.10 μg/mL, 24h treatment, -S9 mix
[15] = dose 24.1 μg/mL, short treatment, +S9 mix
[16] = dose 48.1 μg/mL, 24h treatment, -S9 mix
[17] = dose 48.1 μg/mL, short treatment, +S9 mix
[18] = dose 96 μg/mL, short treatment, +S9 mix
[19] = dose 96.3 μg/mL, 24h treatment, -S9 mix
[20] = Short treatment, +S9 mix, 24.1 μg/mL
[21] = Short treatment, +S9 mix, 48.1 μg/mL
[22] = Short treatment, +S9 mix, 96 μg/mL
[23] = Short treatment, +S9 mix, 770 μg/mL

Nc1ccc([N+](=O)[O-])cc1N [4-Nitro-o-phenylenediamine]
Carcinogenicity Studies (rodent): Neg | MLA (TK gene locus), With S9 ([1]; ref [27]): Pos | MLA (TK gene locus), Without S9 ([1]; ref [27]): Pos | The Highest Specific Activity and the Strain ([2]; TA100 without S9, ref Table 2): 41,400 revertants/mg in TA100 without S9 | specific activity values obtained from Ames test ([2]; ref Table 2): exceeding 10,000 revertants per milligram | Bacterial reverse mutation assay, With S9 [2]: Pos | Bacterial reverse mutation assay, Without S9 [2]: Pos | TK6 assay result (mutant frequency increase, judgment) ([3]; 4h treatment (-S9)): increased significantly | TK mutation assay, Long term ([3]; 24 h, without S9): Pos | TK6 assay result (mutant frequency increase, judgment) ([3]; 24h treatment (-S9)): increased significantly | Dunnett type test, test statistic [3, 7]: 3.866 | Trend test, test statistic [3, 7]: 2.800 | %SG [3, 8]: 54.1% | MF [3, 8]: 14.5 | %SG [3, 9]: 55.8% | MF [3, 9]: 17.4 | Mut. freq. N-MF [3, 9]: 7.7 ×10-6 | Mut. freq. S-MF [3, 9]: 9.7 ×10-6 | Mut. freq. T-MF [3, 9]: 17.4 ×10-6 | %SG [3, 10]: 62.6% | MF [3, 10]: 16.9 | Mut. freq. N-MF [3, 10]: 6.3 ×10-6 | Mut. freq. S-MF [3, 10]: 10.6 ×10-6 | Mut. freq. T-MF [3, 10]: 16.9 ×10-6 | Dunnett type test, test statistic [3, 11]: 3.458 | Trend test, test statistic [3, 11]: 1.593 | Dunnett type test, test statistic [3, 12]: 2.435 | Trend test, test statistic [3, 12]: 2.615 | TK6 assay overall judgment ([3]; all treatments): positive | %SG [3, 13]: 39.7% | Mut. freq. (×10-6) N-MF [3, 13]: 11.7 ×10-6 | Mut. freq. (×10-6) S-MF [3, 13]: 7.7 ×10-6 | Mut. freq. (×10-6) T-MF [3, 13]: 19.4 ×10-6 | %SG [3, 14]: 59.9% | %SG [3, 15]: 62.7% | %SG [3, 16]: 78.5% | Mut. freq. (×10-6) N-MF [3, 16]: 3.0 ×10-6 | Mut. freq. (×10-6) S-MF [3, 16]: 11.1 ×10-6 | Mut. freq. (×10-6) T-MF [3, 16]: 14.2 ×10-6 | %SG [3, 17]: 65.0% | Mut. freq. (×10-6) N-MF [3, 17]: 7.5 ×10-6 | Mut. freq. (×10-6) S-MF [3, 17]: 14.0 ×10-6 | Mut. freq. (×10-6) T-MF [3, 17]: 21.6 ×10-6 | %SG [3, 18]: 70.4% | Mut. freq. (×10-6) N-MF [3, 18]: 5.2 ×10-6 | Mut. freq. (×10-6) S-MF [3, 18]: 12.4 ×10-6 | Mut. freq. (×10-6) T-MF [3, 18]: 17.6 ×10-6 | %SG [3, 19]: 76.1% | Mut. freq. (×10-6) N-MF [3, 19]: 5.6 ×10-6 | Mut. freq. (×10-6) S-MF [3, 19]: 17.9 ×10-6 | Mut. freq. (×10-6) T-MF [3, 19]: 23.5 ×10-6 | TK mutation assay, With S9 ([3]; short-term 4 h, with rat liver S9): Neg | TK mutation assay, Without S9 ([3]; short-term 4 h, without S9): Pos | CE0 (TK6 cells [4]; [20]): 81.6% | RS0 (TK6 cells [4]; [20]): 97.0% | CE3 (TK6 cells [4]; Short treatment, +S9 mix, 24.1 μg/mL, Day 3): 92.1% | Daily cell growth Day 1×2×3 (TK6 cells [4]; [21]): 13.43 | RSG (TK6 cells [4]; [21]): 0.703 | Adjusted CE0 (TK6 cells [4]; [21]): 81.2% | CE0 (TK6 cells [4]; [21]): 84.1% | RS0 (TK6 cells [4]; [21]): 101.5% | CE3 (TK6 cells [4]; Short treatment, +S9 mix, 48.1 μg/mL, Day 3): 84.1% | Daily cell growth Day 1×2×3 (TK6 cells [4]; [22]): 13.64 | RSG (TK6 cells [4]; [22]): 0.714 | Adjusted CE0 (TK6 cells [4]; [22]): 62.7% | CE0 (TK6 cells [4]; [22]): 66.7% | RS0 (TK6 cells [4]; [22]): 78.3% | CE3 (TK6 cells [4]; Short treatment, +S9 mix, 96 μg/mL, Day 3): 72.7% | Daily cell growth Day 1×2×3 (TK6 cells [4]; [23]): 1.65 | RSG (TK6 cells [4]; [23]): 0.086 | Adjusted CE0 (TK6 cells [4]; [23]): 29.1% | CE0 (TK6 cells [4]; [23]): 42.0% | RS0 (TK6 cells [4]; [23]): 36.3% | CE3 (TK6 cells [4]; [8]): 1.160 | RS (TK6 cells [4]; [8]): 79.4 | CE0 (TK6 cells [4]; [8]): 74.8% | RS0 (TK6 cells [4]; [8]): 79.4% | CE3 (TK6 cells [4]; Short treatment, -S9 mix, 24.10 μg/mL, Day 3): 116.0% | CE3 (TK6 cells [4]; [9]): 0.866 | Daily cell growth Day 1×2×3 (TK6 cells [4]; [9]): 13.83 | RS (TK6 cells [4]; [9]): 65.5 | RSG (TK6 cells [4]; [9]): 0.667 | Adjusted CE0 (TK6 cells [4]; [9]): 56.8% | CE0 (TK6 cells [4]; [9]): 61.3% | RS0 (TK6 cells [4]; [9]): 65.5% | CE3 (TK6 cells [4]; Short treatment, -S9 mix, 48.10 μg/mL, Day 3): 86.6% | CE3 (TK6 cells [4]; [10]): 0.950 | Daily cell growth Day 1×2×3 (TK6 cells [4]; [10]): 13.07 | RS (TK6 cells [4]; [10]): 64.6 | RSG (TK6 cells [4]; [10]): 0.630 | Adjusted CE0 (TK6 cells [4]; [10]): 56.1% | CE0 (TK6 cells [4]; [10]): 63.1% | RS0 (TK6 cells [4]; [10]): 64.6% | CE3 (TK6 cells [4]; Short treatment, -S9 mix, 96.30 μg/mL, Day 3): 95.0% | CE3 (TK6 cells [4]; [13]): 0.866 | Daily cell growth Day 1×2×3 (TK6 cells [4]; [13]): 17.46 | RSG (TK6 cells [4]; [13]): 0.993 | Adjusted CE0(%) (TK6 cells [4]; [13]): 178.3% | CE0 (%) (TK6 cells [4]; [13]): 81.6% | RS0 (%) (TK6 cells [4]; [13]): 79.6% | CE3 (%) (TK6 cells [4]; dose 6.02 μg/mL, 24h treatment, -S9 mix, Day 3): 86.6% | CE3 (TK6 cells [4]; [14]): 1.012 | CE0 (%) (TK6 cells [4]; [14]): 95.0% | RS0 (%) (TK6 cells [4]; [14]): 73.2% | CE3 (%) (TK6 cells [4]; dose 24.10 μg/mL, 24h treatment, -S9 mix, Day 3): 101.2% | CE3 (TK6 cells [4]; [15]): 0.921 | RS (TK6 cells [4]; [15]): 97.0 | CE3 (TK6 cells [4]; [16]): 0.950 | Daily cell growth Day 1×2×3 (TK6 cells [4]; [16]): 11.59 | RSG (TK6 cells [4]; [16]): 0.659 | Adjusted CE0(%) (TK6 cells [4]; [16]): 99.3% | CE0 (%) (TK6 cells [4]; [16]): 74.8% | RS0 (%) (TK6 cells [4]; [16]): 44.3% | CE3 (%) (TK6 cells [4]; dose 48.1 μg/mL, 24h treatment, -S9 mix, Day 3): 95.0% | CE3 (TK6 cells [4]; [17]): 0.841 | RS (TK6 cells [4]; [17]): 101.5 | CE3 (TK6 cells [4]; [18]): 0.727 | RS (TK6 cells [4]; [18]): 78.3 | CE3 (TK6 cells [4]; [19]): 0.866 | Daily cell growth Day 1×2×3 (TK6 cells [4]; [19]): 9.04 | RSG (TK6 cells [4]; [19]): 0.514 | Adjusted CE0(%) (TK6 cells [4]; [19]): 55.5% | CE0 (%) (TK6 cells [4]; [19]): 59.6% | RS0 (%) (TK6 cells [4]; [19]): 24.8% | CE3 (%) (TK6 cells [4]; dose 96.3 μg/mL, 24h treatment, -S9 mix, Day 3): 86.6% | RS (TK6 cells [4]; dose 770 μg/mL, short treatment, +S9 mix): 36.3

Cc1cc(N)ccc1N [2,5-Diaminotoluene]
TK6 assay overall judgment [5]: negative | TK mutation assay, Long term [5]: Neg | TK mutation assay, With S9 [5]: Neg | TK mutation assay, Without S9 [5]: Neg | CE3 (cell viability on Day 3) (TK6 cells [6]): 92.1% | cytotoxicity (TK6 cells [6]): About 80% | Carcinogenicity Studies (rodent): Neg | MLA result ([1]; NTP database, ref [54]): positive | MLA result ([1]; reported by SCCS, ref [46]): negative | MLA (TK gene locus), With S9 ([1]; ref [27]): Inconclusive^c | MLA (TK gene locus), Without S9 ([1]; ref [27]): Inconclusive^c

O=[N+]([O-])c1cc(N(CCO)CCO)ccc1NCCO [HC Blue No.2]
TK mutation assay, Long term [5]: Pos | TK mutation assay, With S9 [5]: Neg | TK mutation assay, Without S9 [5]: Neg | Trend test, test statistic [5]: 2.719 | carcinogenicity classification (rodent; ref [84]): non-carcinogenic | Carcinogenicity Studies (rodent): Neg | MLA (4 h) ([1]; presence of S9, ref [27], [29], [68]): positive | MLA (−S9) ([1]; substance with high purity, −S9, ref [27]): positive | MLA (TK gene locus), With S9 ([1]; ref [27]): Pos | MLA (TK gene locus), Without S9 ([1]; ref [27]): Pos | The Highest Specific Activity and the Strain ([2]; TA98 with S9, ref Table 2): 153.6 revertants/mg in TA98 with S9 | Bacterial reverse mutation assay, With S9 [2]: Pos | Bacterial reverse mutation assay, Without S9 [2]: Pos
